Where two headings read alike, the source gives them in different places.
Tests used:
ERK5 = target: T1, ERK5 (Homo sapiens, UniProt Q13164); test: Probe-based (AX9989 acyl phosphate ATP probe) kinase profiling in Jurkat lysate: ERK5; format: binding; settings: for IC50: Jurkat lysate
T1 construct: screened for activity against several kinases in Jurkat cells; endogenous in cells; host or cells: Jurkat cell lysate
Procedure, shortened: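 Gel-filtered Jurkat lysate (5 mg/ml, 20 mM MnCl2) preincubated 15 min at room temperature with compound, then labelled with 5 μM AX9989 acyl phosphate ATP probe. Probe-labelled ERK5 active-site peptides quantified by LC/MS after trypsin digestion and streptavidin capture; IC50 calculated from percent inhibition at the screening concentration.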

AurA = target: T2, AurA (Homo sapiens, UniProt O14965); test: Probe-based (AX9989) kinase profiling in Jurkat lysate: AurA; format: binding
T2 construct: screened for activity against several kinases in Jurkat cells; endogenous in cells; host or cells: Jurkat cell lysate
T2 sequence (O14965 1-403): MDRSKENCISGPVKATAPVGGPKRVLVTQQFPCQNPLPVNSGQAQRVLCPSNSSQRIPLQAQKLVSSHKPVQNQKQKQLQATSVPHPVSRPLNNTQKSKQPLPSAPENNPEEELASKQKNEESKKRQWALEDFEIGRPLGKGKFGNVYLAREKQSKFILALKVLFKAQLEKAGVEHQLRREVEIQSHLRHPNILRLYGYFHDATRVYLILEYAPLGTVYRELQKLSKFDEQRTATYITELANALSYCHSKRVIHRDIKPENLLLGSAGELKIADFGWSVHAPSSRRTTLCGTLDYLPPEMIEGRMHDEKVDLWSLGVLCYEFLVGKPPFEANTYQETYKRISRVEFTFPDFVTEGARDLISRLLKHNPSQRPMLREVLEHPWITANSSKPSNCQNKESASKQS
Procedure, shortened: (§1)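 Jurkat lysate, HEPES pH 7.5 buffer + 20 mM MnCl2; cpd 15 min RT; AX9989 ATP probe 5 μM final, RT. Trypsin digest, streptavidin capture, LC/MS; % inhibition vs vehicle from labeled-peptide signal.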

AurB or AurC = test: Probe-based (AX9989) kinase profiling in Jurkat lysate: AurB or AurC; format: binding; settings: for Kinase inhibition % at indicated screening concentration: AurB or AurC: screening concentration 1.0 μM; for AurB or AurC Inhibition % at indicated screening concentration: screening concentration 1 μM
Procedure, shortened: as §1

JAK1 = target: T3, JAK1 (Homo sapiens, UniProt P23458); test: Probe-based (AX9989) kinase profiling in Jurkat lysate: JAK1; format: binding
T3 construct: screened for activity against several kinases in Jurkat cells; endogenous in cells; host or cells: Jurkat cell lysate
T3 sequence (P23458 whole entry): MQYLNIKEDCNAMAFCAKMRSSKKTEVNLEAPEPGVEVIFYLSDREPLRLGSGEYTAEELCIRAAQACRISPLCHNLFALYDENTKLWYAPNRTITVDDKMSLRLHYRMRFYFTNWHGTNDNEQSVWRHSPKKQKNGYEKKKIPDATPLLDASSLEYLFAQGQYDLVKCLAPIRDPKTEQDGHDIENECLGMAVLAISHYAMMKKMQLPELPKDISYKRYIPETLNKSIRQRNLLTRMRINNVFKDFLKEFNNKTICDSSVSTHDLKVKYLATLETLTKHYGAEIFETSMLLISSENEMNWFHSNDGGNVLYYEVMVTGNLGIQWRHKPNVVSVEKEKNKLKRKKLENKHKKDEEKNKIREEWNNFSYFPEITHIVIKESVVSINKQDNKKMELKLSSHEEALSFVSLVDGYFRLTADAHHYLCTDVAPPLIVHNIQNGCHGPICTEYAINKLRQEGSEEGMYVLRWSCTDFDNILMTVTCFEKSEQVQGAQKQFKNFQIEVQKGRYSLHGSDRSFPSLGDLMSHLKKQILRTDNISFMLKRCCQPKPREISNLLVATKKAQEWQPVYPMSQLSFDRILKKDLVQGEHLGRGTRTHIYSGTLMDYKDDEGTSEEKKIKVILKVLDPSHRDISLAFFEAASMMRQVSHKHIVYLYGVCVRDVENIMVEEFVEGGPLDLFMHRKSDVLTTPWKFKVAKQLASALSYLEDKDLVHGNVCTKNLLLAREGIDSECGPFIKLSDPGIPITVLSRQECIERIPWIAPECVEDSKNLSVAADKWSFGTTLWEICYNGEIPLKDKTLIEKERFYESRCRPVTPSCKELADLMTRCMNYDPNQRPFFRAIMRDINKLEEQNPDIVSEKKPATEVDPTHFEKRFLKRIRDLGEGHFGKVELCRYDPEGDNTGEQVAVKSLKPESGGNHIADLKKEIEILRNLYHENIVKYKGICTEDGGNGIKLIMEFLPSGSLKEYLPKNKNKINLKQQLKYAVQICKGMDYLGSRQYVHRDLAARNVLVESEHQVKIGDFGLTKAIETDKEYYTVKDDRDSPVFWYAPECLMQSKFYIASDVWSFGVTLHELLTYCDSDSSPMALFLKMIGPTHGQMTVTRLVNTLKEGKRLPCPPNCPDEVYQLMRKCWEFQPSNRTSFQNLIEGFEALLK
Procedure, shortened: as §1

AMPKa1 or AMPKa2 = test: Probe-based (AX9989) kinase profiling in Jurkat lysate: AMPKa1 or AMPKa2; format: binding; settings: for Kinase inhibition % at indicated screening concentration: AMPKa1 or AMPKa2: screening concentration 1.0 μM; for AMPKa1 or AMPKa2 Inhibition % at indicated screening concentration: screening concentration 1 μM
Procedure, shortened: as §1

TAO2 = target: T4, TAO2 (Homo sapiens, UniProt Q9UL54); test: Probe-based (AX9989) kinase profiling in Jurkat lysate: TAO2; format: binding
T4 construct: screened for activity against several kinases in Jurkat cells; endogenous in cells; host or cells: Jurkat cell lysate
T4 sequence (Q9UL54 1-1235): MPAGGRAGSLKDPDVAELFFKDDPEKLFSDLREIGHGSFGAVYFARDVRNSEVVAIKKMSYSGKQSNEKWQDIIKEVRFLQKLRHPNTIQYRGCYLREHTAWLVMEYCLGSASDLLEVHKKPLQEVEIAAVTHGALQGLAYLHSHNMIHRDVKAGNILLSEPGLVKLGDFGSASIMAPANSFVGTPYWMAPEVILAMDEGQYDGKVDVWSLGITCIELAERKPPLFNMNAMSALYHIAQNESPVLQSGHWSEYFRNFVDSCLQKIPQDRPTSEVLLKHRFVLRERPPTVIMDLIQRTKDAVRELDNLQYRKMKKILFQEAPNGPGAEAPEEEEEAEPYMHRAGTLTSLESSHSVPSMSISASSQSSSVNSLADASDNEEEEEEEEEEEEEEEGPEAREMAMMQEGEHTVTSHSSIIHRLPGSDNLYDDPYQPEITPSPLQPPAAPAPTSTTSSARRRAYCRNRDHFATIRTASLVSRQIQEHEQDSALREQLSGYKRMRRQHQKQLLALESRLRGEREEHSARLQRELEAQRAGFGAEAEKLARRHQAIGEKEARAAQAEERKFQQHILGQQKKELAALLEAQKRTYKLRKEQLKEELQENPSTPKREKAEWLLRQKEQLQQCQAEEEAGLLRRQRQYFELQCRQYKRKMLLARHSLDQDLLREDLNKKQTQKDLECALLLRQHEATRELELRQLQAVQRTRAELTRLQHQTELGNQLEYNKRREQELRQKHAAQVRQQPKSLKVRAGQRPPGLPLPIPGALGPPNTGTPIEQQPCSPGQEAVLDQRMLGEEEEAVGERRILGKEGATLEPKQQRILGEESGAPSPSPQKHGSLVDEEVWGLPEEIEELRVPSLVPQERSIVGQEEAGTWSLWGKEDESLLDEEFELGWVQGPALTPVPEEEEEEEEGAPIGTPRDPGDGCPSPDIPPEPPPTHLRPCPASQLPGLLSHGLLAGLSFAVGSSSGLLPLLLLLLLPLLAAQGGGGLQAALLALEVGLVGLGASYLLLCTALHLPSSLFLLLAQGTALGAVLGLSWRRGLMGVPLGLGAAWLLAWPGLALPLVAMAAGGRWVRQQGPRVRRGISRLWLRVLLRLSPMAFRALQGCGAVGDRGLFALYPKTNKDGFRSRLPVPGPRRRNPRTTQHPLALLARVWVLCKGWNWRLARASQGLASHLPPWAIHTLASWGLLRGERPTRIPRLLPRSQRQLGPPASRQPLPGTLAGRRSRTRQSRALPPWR
Procedure, shortened: as §1

ACK = target: T5, ACK (Homo sapiens, UniProt Q07912); test: Probe-based (AX9989) kinase profiling in Jurkat lysate: ACK; format: binding
T5 construct: screened for activity against several kinases in Jurkat cells; endogenous in cells; host or cells: Jurkat cell lysate
T5 sequence (Q07912 whole entry): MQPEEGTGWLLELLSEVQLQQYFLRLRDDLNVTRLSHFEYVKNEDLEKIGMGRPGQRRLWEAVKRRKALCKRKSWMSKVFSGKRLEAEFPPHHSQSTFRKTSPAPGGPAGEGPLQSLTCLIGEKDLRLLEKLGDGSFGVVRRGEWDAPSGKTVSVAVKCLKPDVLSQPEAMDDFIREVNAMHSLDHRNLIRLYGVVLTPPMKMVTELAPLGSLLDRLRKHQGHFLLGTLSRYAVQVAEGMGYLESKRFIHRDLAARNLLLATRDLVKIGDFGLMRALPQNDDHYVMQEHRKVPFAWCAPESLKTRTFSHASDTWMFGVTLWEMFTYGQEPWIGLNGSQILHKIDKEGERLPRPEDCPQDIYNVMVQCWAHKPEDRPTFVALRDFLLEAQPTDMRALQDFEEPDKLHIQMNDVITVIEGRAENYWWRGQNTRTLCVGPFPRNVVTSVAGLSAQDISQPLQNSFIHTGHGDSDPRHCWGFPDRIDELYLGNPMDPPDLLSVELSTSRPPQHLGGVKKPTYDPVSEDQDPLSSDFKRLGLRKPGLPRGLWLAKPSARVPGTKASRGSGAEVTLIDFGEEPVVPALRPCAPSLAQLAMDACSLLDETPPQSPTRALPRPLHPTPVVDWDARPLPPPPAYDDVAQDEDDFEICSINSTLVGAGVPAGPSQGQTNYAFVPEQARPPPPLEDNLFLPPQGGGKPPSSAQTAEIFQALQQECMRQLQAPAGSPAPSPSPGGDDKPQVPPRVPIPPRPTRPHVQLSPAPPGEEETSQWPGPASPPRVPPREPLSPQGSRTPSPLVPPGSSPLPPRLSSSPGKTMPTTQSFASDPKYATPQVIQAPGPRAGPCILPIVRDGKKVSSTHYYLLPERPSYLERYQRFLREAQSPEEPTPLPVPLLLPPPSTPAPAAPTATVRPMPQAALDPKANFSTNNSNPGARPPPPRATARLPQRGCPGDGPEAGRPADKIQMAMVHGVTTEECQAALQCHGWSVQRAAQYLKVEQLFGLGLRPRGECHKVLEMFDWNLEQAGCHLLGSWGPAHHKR
Procedure, shortened: as §1

ABL or ARG = test: Probe-based (AX9989) kinase profiling in Jurkat lysate: ABL or ARG; format: binding; settings: for Kinase inhibition % at indicated screening concentration: ABL or ARG: screening concentration 1.0 μM; for ABL or ARG Inhibition % at indicated screening concentration: screening concentration 1 μM
Procedure, shortened: as §1

human PBMCs = test: Human PBMC TNF-α response to endotoxin (ELISA); format: cell-based; settings: 0.1 μg/ml LPS 16 h, read-out: EC50 for the inhibition of the human PBMC TNF-α response to endotoxin, ave. ± S.D.
Procedure, shortened: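 PBMCs at 2e6 cells/ml in RPMI 1640 with 10% charcoal-dextran-treated FBS were pre-treated 1 h at 37 °C with compound (4-point 1:5 dilution from 10 μM). Stimulation with 0.1 μg/ml E. coli 0111:B4 LPS for 16 h; TNF-α measured by ELISA (A450) in 25-fold diluted supernatant.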

[1] = calculated from percent inhibition of AX9989 labeling and the screening concentration
[2] = screening concentration 1.0 μM, read-out: Kinase inhibition % at indicated screening concentration: ERK5
[3] = screening concentration 1.0 μM, read-out: Kinase inhibition % at indicated screening concentration: AurA
[4] = screening concentration 1.0 μM, read-out: Kinase inhibition % at indicated screening concentration: JAK1
[5] = screening concentration 1.0 μM, read-out: Kinase inhibition % at indicated screening concentration: TAO2
[6] = screening concentration 1.0 μM, read-out: Kinase inhibition % at indicated screening concentration: ACK
[7] = calculated from percent inhibition and screening concentration, AX9989 probe
[8] = screening concentration 1 μM, read-out: ERK5 Inhibition % at indicated screening concentration
[9] = screening concentration 1 μM, read-out: AurA Inhibition % at indicated screening concentration
[10] = screening concentration 1 μM, read-out: JAK1 Inhibition % at indicated screening concentration
[11] = screening concentration 1 μM, read-out: TAO2 Inhibition % at indicated screening concentration
[12] = screening concentration 1 μM, read-out: ACK Inhibition % at indicated screening concentration

T1 sequence (Q13164 whole entry): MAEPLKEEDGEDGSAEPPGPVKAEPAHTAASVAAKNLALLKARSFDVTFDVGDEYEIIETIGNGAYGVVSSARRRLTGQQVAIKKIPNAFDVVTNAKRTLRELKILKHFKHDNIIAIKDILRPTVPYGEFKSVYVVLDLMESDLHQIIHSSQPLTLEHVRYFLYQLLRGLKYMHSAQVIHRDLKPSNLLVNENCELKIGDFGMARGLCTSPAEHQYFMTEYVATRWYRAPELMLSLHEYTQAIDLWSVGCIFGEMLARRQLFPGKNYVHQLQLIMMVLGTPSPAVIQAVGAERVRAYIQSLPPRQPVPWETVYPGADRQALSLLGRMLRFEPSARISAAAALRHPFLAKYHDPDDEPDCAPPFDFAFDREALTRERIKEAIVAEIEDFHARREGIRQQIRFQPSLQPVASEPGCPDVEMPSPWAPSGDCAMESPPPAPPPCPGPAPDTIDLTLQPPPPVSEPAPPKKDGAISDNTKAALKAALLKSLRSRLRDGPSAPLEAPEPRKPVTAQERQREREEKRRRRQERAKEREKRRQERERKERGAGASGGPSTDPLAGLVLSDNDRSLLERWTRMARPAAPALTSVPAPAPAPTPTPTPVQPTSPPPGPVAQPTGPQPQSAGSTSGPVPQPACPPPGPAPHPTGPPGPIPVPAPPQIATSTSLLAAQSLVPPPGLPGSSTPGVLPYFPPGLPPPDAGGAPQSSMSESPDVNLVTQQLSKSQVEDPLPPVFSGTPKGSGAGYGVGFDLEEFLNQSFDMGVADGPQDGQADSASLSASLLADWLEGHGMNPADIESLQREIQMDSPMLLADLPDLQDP

IC50 (ERK5; [1]) | inhibition at 1 µM (ERK5; [2]) | inhibition at 1 µM (AurA; [3]) | Kinase inhibition % at indicated screening concentration: AurB or AurC (AurB or AurC) | inhibition at 1 µM (JAK1; [4]) | Kinase inhibition % at indicated screening concentration: AMPKa1 or AMPKa2 (AMPKa1 or AMPKa2) | inhibition at 1 µM (TAO2; [5]) | inhibition at 1 µM (ACK; [6]) | Kinase inhibition % at indicated screening concentration: ABL or ARG (ABL or ARG) | IC50 (ERK5; [7]) | inhibition at 1 µM (ERK5; [8]) | inhibition at 1 µM (AurA; [9]) | AurB or AurC Inhibition % at indicated screening concentration (AurB or AurC) | inhibition at 1 µM (JAK1; [10]) | AMPKa1 or AMPKa2 Inhibition % at indicated screening concentration (AMPKa1 or AMPKa2) | inhibition at 1 µM (TAO2; [11]) | inhibition at 1 µM (ACK; [12]) | ABL or ARG Inhibition % at indicated screening concentration (ABL or ARG) | SMILES | EC50 (human PBMCs)
– | – | – | – | – | – | – | – | – | ≤ 0.05 µM | > 90% | ≤ 35% | E (E is ≦35%) | ≤ 35% | E (E is ≦35%) | ≤ 35% | ≤ 35% | E (E is ≦35%) | CCOc1cc(C(=O)N2CCC(N3CCCC3)CC2)ccc1Nc1cc2c(cn1)N(C)C(=O)c1scnc1N2C [Compound T6] | 0.4 µM
– | – | – | – | – | – | – | – | – | 0.05 to 0.1 µM | > 90% | ≤ 35% | E (E is ≦35%) | ≤ 35% | E (E is ≦35%) | ≤ 35% | ≤ 35% | E (E is ≦35%) | CCOc1cc(C(=O)N2CCCNCC2)ccc1Nc1cc2c(cn1)N(C)C(=O)c1scnc1N2C [Compound T7] | 0.34 µM
– | – | – | – | – | – | – | – | – | 0.101 to 0.5 µM | 50 to 75% | ≤ 35% | E (E is ≦35%) | ≤ 35% | E (E is ≦35%) | ≤ 35% | ≤ 35% | E (E is ≦35%) | CCOc1cc(C(=O)N[C@H]2CC[C@H](C#N)CC2)ccc1Nc1cc2c(cn1)N(C)C(=O)c1ccccc1N2C [Compound T59] | 0.72 µM

Second part, the compound before the results:

SMILES | IC50 (ERK5; [1]) | inhibition at 1 µM (ERK5; [2]) | inhibition at 1 µM (AurA; [3]) | Kinase inhibition % at indicated screening concentration: AurB or AurC (AurB or AurC) | inhibition at 1 µM (JAK1; [4]) | Kinase inhibition % at indicated screening concentration: AMPKa1 or AMPKa2 (AMPKa1 or AMPKa2) | inhibition at 1 µM (TAO2; [5]) | inhibition at 1 µM (ACK; [6]) | Kinase inhibition % at indicated screening concentration: ABL or ARG (ABL or ARG) | IC50 (ERK5; [7]) | inhibition at 1 µM (ERK5; [8]) | inhibition at 1 µM (AurA; [9]) | AurB or AurC Inhibition % at indicated screening concentration (AurB or AurC) | inhibition at 1 µM (JAK1; [10]) | AMPKa1 or AMPKa2 Inhibition % at indicated screening concentration (AMPKa1 or AMPKa2) | inhibition at 1 µM (TAO2; [11]) | inhibition at 1 µM (ACK; [12]) | ABL or ARG Inhibition % at indicated screening concentration (ABL or ARG) | EC50 (human PBMCs)
CCOc1cc(C(=O)N2CCC(N3CCN(C)CC3)CC2)ccc1Nc1cc2c(cn1)N(C)C(=O)C1CCCCC1N2C (centres unmarked) [Compound 68] | > 0.5 µM | ≤ 35% | ≤ 35% | E (E is ≦35%) | ≤ 35% | E (E is ≦35%) | ≤ 35% | ≤ 35% | E (E is ≦35%) | – | – | – | – | – | – | – | – | – | > 10 µM
Cc1cc(CO)ccc1Nc1cc2c(cn1)N(C)C(=O)c1ccccc1N2C [Compound 85, 3-(4-(hydroxymethyl)-2-methylphenylamino)-5,11-dimethyl-5H-benzo[e]pyrido[3,4-b][1,4]diazepin-10(11H)-one] | 0.101 to 0.5 µM | 75 to 90% | ≤ 35% | E (E is ≦35%) | ≤ 35% | E (E is ≦35%) | ≤ 35% | ≤ 35% | E (E is ≦35%) | – | – | – | – | – | – | – | – | – | 1.35 µM
Cc1cc(C#N)ccc1Nc1cc2c(cn1)N(C)C(=O)c1ccccc1N2C [Compound 89] | 0.101 to 0.5 µM | 50 to 75% | ≤ 35% | E (E is ≦35%) | ≤ 35% | E (E is ≦35%) | ≤ 35% | ≤ 35% | E (E is ≦35%) | – | – | – | – | – | – | – | – | – | 1.75 µM
CCOc1cc(C)ccc1Nc1cc2c(cn1)N(C)C(=O)c1ccccc1N2C [Compound 95] | > 0.5 µM | ≤ 35% | ≤ 35% | E (E is ≦35%) | ≤ 35% | E (E is ≦35%) | ≤ 35% | ≤ 35% | E (E is ≦35%) | – | – | – | – | – | – | – | – | – | 3.73 µM
COc1cc(C)c(Nc2cc3c(cn2)N(C)C(=O)c2ccccc2N3C)cn1 [Compound 116] | > 0.5 µM | 50 to 75% | ≤ 35% | E (E is ≦35%) | ≤ 35% | E (E is ≦35%) | ≤ 35% | ≤ 35% | E (E is ≦35%) | – | – | – | – | – | – | – | – | – | 4.37 µM

From US20170008888A1 (KYORIN PHARMACEUTICAL CO., LTD., priority 2014, published 2017)
